“And” between values parts separate entries of the source, which are not always exact repeats. Equal entries are not always repeated. Inconclusive results and toxic doses are left out. Rule for the calls: active = survival T/C of 150% or more; inactive = T/C below 125% in these data.
Tested on: P388 leukemia ip, CD2F1 mice, survival T/C
Test: NCI In Vivo Anticancer Drug Screen. Data for tumor model P388 Leukemia (intraperitoneal) in CD2F1 (CDF1) mice
Settings: endpoint: median survival time, higher = longer survival
How it was run: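 Mice carrying the transplanted tumor received test compound or vehicle. Survival was recorded in each group, and the value is the treated-group measurement divided by that of the vehicle-treated control group.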

[1] = dose: 50.0 mg/kg/injection, schedule: Q04DX002 (ip), vehicle: saline with Tween-80
[2] = dose: 100.0 mg/kg/injection, schedule: Q04DX002 (ip), vehicle: saline with Tween-80
[3] = dose: 100.0 mg/kg/injection, schedule: Q01DX001 (ip), vehicle: saline
[4] = dose: 200.0 mg/kg/injection, schedule: Q01DX001 (ip), vehicle: saline
[5] = dose: 400.0 mg/kg/injection, schedule: Q01DX001 (ip), vehicle: saline
[6] = dose: 50.0 mg/kg/injection, schedule: Q01DX005 (ip), vehicle: Klucel (hydroxypropylcellulose) (HPC)
[7] = dose: 12.5 mg/kg/injection, schedule: Q01DX009 (ip), vehicle: saline with Tween-80
[8] = dose: 25.0 mg/kg/injection, schedule: Q01DX009 (ip), vehicle: saline with Tween-80
[9] = dose: 50.0 mg/kg/injection, schedule: Q01DX009 (ip), vehicle: saline with Tween-80
[10] = dose: 100.0 mg/kg/injection, schedule: Q01DX005 (ip), vehicle: Klucel (hydroxypropylcellulose) (HPC)
[11] = dose: 200.0 mg/kg/injection, schedule: Q01DX005 (ip), vehicle: Klucel (hydroxypropylcellulose) (HPC)
[12] = dose: 60.0 mg/kg/injection, schedule: Q01DX005 (ip), vehicle: Klucel (hydroxypropylcellulose) (HPC)
[13] = dose: 120.0 mg/kg/injection, schedule: Q01DX005 (ip), vehicle: Klucel (hydroxypropylcellulose) (HPC)
[14] = dose: 240.0 mg/kg/injection, schedule: Q01DX005 (ip), vehicle: Klucel (hydroxypropylcellulose) (HPC)
[15] = dose: 100.0 mg/kg/injection, schedule: Q01DX009 (ip), vehicle: saline with Tween-80
[16] = dose: 200.0 mg/kg/injection, schedule: Q01DX009 (ip), vehicle: saline with Tween-80
[17] = dose: 50.0 mg/kg/injection, schedule: Q01DX005 (ip), vehicle: saline with Tween-80
[18] = dose: 100.0 mg/kg/injection, schedule: Q01DX005 (ip), vehicle: saline with Tween-80

Measured: T/C

C/C=C/CC(/C(C)=N\[N+](C)(C)C)c1ccccc1 (configuration not stated)
inactive: dose: 100.0 mg/kg/injection, schedule: Q04DX003 (ip), vehicle: saline 107 % of control | dose: 200.0 mg/kg/injection, schedule: Q04DX003 (ip), vehicle: saline 97 % of control | dose: 400.0 mg/kg/injection, schedule: Q04DX003 (ip), vehicle: saline 99 % of control

Cc1nc2[nH]c(=O)ccc2c(C)c1N
inactive: dose: 25.0 mg/kg/injection, schedule: Q04DX002 (ip), vehicle: saline with Tween-80 103 % of control | [1] 110 % of control | [2] 100 % of control

COc1ccccc1Nc1n[nH]c(=S)s1
inactive: dose: 50.0 mg/kg/injection, schedule: Q01DX009 (ip), vehicle: Klucel (hydroxypropylcellulose) (HPC) 121 % of control | dose: 100.0 mg/kg/injection, schedule: Q01DX009 (ip), vehicle: Klucel (hydroxypropylcellulose) (HPC) 105 % of control | dose: 200.0 mg/kg/injection, schedule: Q01DX009 (ip), vehicle: Klucel (hydroxypropylcellulose) (HPC) 95 % of control

Cn1c(=O)c2nc(-c3ccccc3)cnc2n(C)c1=O
inactive: [3] 99 % of control | [4] 96 % of control | [5] 111 % of control

COc1ccc2c(c1)c(CBr)c(C)c[n+]2[O-]
inactive: dose: 6.25 mg/kg/injection, schedule: Q01DX005 (ip), vehicle: Klucel (hydroxypropylcellulose) (HPC) 104 % of control | dose: 12.5 mg/kg/injection, schedule: Q01DX005 (ip), vehicle: Klucel (hydroxypropylcellulose) (HPC) 102 % of control | [6] 86 % of control

NNc1nc2ccccc2s1
inactive: [7] 105 % of control | [8] 107 % of control | [9] 98 % of control

O=C(c1nc2ccccc2[nH]1)N1CCN(c2ccccc2)CC1
inactive: [6] 104 % of control | [10] 107 % of control and 95 % of control | [11] 101 % of control and 110 % of control

CC1=C(C(C)(C)C)C(=O)c2ccccc2C1=O
inactive: [6] 100 % of control | [10] 103 % of control | [11] 107 % of control

C[N+](C)(C)C[c-]1[c-][c-][c-][c-]1.[Fe].[c-]1[c-][c-][cH-][c-]1
inactive: dose: 1.56 mg/kg/injection, schedule: Q01DX009 (ip), vehicle: saline with Tween-80 96 % of control | dose: 3.13 mg/kg/injection, schedule: Q01DX009 (ip), vehicle: saline with Tween-80 97 % of control | dose: 6.25 mg/kg/injection, schedule: Q01DX009 (ip), vehicle: saline with Tween-80 99 % of control | [7] 100 % of control

O=[N+]([O-])c1ccc2nc(N/N=C/COC/C=N/Nc3nc4ccc([N+](=O)[O-])cc4s3)sc2c1
inactive: [3] 94 % of control | [4] 104 % of control | [5] 96 % of control

Nc1[nH]c(=O)ncc1CS(=O)(=O)O
inactive: [1] 97 % of control | [2] 108 % of control | dose: 200.0 mg/kg/injection, schedule: Q04DX002 (ip), vehicle: saline with Tween-80 107 % of control

O=C1C2=C(Nc3cc([N+](=O)[O-])ccc3N2)OC1c1ccc(Cl)cc1Cl (configuration not stated)
inactive: dose: 30.0 mg/kg/injection, schedule: Q01DX005 (ip), vehicle: Klucel (hydroxypropylcellulose) (HPC) 101 % of control | [12] 89 % of control and 94 % of control | [13] 99 % of control | [14] 111 % of control

N#C/C(=C(/N)N1CCOCC1)N1CCOCC1
inactive: [12] 100 % of control | [13] 95 % of control | [14] 98 % of control

CC1(c2ccc3ccccc3c2)C(C#N)(C#N)C1(C#N)C#N
inactive: dose: 12.5 mg/kg/injection, schedule: Q01DX009 (ip), vehicle: saline 100 % of control | dose: 25.0 mg/kg/injection, schedule: Q01DX009 (ip), vehicle: saline 102 % of control | dose: 50.0 mg/kg/injection, schedule: Q01DX009 (ip), vehicle: saline 89 % of control | dose: 100.0 mg/kg/injection, schedule: Q01DX009 (ip), vehicle: saline 103 % of control

CCOC(=O)CCC(C)(C#N)c1ccccc1 (configuration not stated)
inactive: [7] 94 % of control | [8] 99 % of control | [9] 103 % of control | [15] 87 % of control

CN(C)c1nc(NO)nc(N(C)C)n1
inactive: [9] 103 % of control | [15] 107 % of control | [16] 112 % of control

COC(=O)c1nc(=S)[nH]c(C(=O)OC)c1C(=O)/C=C/c1ccccc1
inactive: dose: 60.0 mg/kg/injection, schedule: Q01DX005 (ip), vehicle: saline + Tween-80 + alcohol 104 % of control | dose: 120.0 mg/kg/injection, schedule: Q01DX005 (ip), vehicle: saline + Tween-80 + alcohol 100 % of control

C=CCNC(=S)Nc1ccccc1C(=O)c1ccccc1
inactive: [9] 104 % of control | [15] 103 % of control | [16] 103 % of control

c1ccc(-c2nc(-c3ccccn3)cc3ccccc23)cc1
inactive: dose: 100.0 mg/kg/injection, schedule: Q01DX001 (ip), vehicle: saline with Tween-80 91 % of control | dose: 200.0 mg/kg/injection, schedule: Q01DX001 (ip), vehicle: saline with Tween-80 92 % of control | dose: 400.0 mg/kg/injection, schedule: Q01DX001 (ip), vehicle: saline with Tween-80 112 % of control

CC1c2ccccc2NC(=O)N1N1CCOCC1 (configuration not stated)
inactive: [6] 96 % of control | [10] 93 % of control | [11] 97 % of control

Cc1cc(C)cc(CSCc2c(CSCc3cc(C)cc(C)c3)c(CSCc3cc(C)cc(C)c3)c(CSCc3cc(C)cc(C)c3)c(CSCc3cc(C)cc(C)c3)c2CSCc2cc(C)cc(C)c2)c1
inactive: [9] 102 % of control | [15] 100 % of control | [16] 105 % of control

C/C=C1/CN2C3CC45c6ccccc6N(C)C4C2CC1C3C5O (configuration not stated)
inactive: [17] 98 % of control | [18] 97 % of control

CC(C)(N)P(=O)(O)O
inactive: dose: 25.0 mg/kg/injection, schedule: Q01DX009 (ip), vehicle: suspension in saline 96 % of control | dose: 50.0 mg/kg/injection, schedule: Q01DX009 (ip), vehicle: suspension in saline 92 % of control | dose: 100.0 mg/kg/injection, schedule: Q01DX009 (ip), vehicle: suspension in saline 100 % of control | dose: 200.0 mg/kg/injection, schedule: Q01DX009 (ip), vehicle: suspension in saline 106 % of control

Nc1c(Br)cc(Br)c2c1[nH]c(=O)c1ccccc12
inactive: dose: 60.0 mg/kg/injection, schedule: Q01DX005 (ip), vehicle: saline with Tween-80 96 % of control | dose: 120.0 mg/kg/injection, schedule: Q01DX005 (ip), vehicle: saline with Tween-80 90 % of control | dose: 240.0 mg/kg/injection, schedule: Q01DX005 (ip), vehicle: saline with Tween-80 107 % of control

C=C(C)C1C/C=C2/C(=O)OC(CC3(C)CC(=O)C(CC(=O)C1)O3)C2O (configuration not stated)
inactive: dose: 4.0 mg/kg/injection, schedule: Q01DX009 (ip), vehicle: Klucel (hydroxypropylcellulose) (HPC) 101 % of control | dose: 8.0 mg/kg/injection, schedule: Q01DX009 (ip), vehicle: Klucel (hydroxypropylcellulose) (HPC) 101 % of control | dose: 16.0 mg/kg/injection, schedule: Q01DX009 (ip), vehicle: Klucel (hydroxypropylcellulose) (HPC) 104 % of control | dose: 32.0 mg/kg/injection, schedule: Q01DX009 (ip), vehicle: Klucel (hydroxypropylcellulose) (HPC) 101 % of control

CCC(c1ccc(O)cc1)c1cc2c(cc1OCC(=O)O)OCO2 (configuration not stated)
inactive: [17] 102 % of control | [18] 93 % of control | dose: 200.0 mg/kg/injection, schedule: Q01DX005 (ip), vehicle: saline with Tween-80 99 % of control

Reference: PubChem BioAssay AID330 (DTP/NCI, 2004)
